Laboratory results as given in patent publication US20140349948A1, “Treatment of Chronic Constipation” (Forest Laboratories Holdings Limited, priority 2009, published 2014).
Marks after values point to notes of the source that are not given here. Residues, ends and D or L forms follow the SMILES beside them.

Experiments:
[1] = tested on: patients with chronic constipation; test: Trials 1 and 2 pooled; format: in vivo, human
Experimental: Linaclotide Capsules from Example 4 were administered in multicenter, randomized, double-blind, placebo-controlled trials.
Trial 1 was conducted in 630 patients meeting modified Rome II criteria for chronic constipation. The trial included a two-week pretreatment baseline period and a 12-week treatment period. A diagram of the study design for Trial 2 is given in FIG. 1, which is substantially similar to Trial 1 except for the addition of a Randomized Withdrawal period in Trial 2 as described below.
(§1) Trial 2 was conducted in 642 patients and was identical to Trial 1 except that Trial 2 also included a four-week Randomized Withdrawal Period, defined below. During the two-week pretreatment (baseline) period, 68 percent of patients in Trial 2 had no CSBMs.

[2] = tested on: patients with chronic constipation; test: Trial 2 four-week Randomized Withdrawal Period; format: in vivo, human; parameters: Straining, Change From Baseline, Mean / Abdominal Discomfort, Change From Baseline, Mean / Bloating, Change From Baseline, Mean / Constipation Severity, Change From Baseline, Mean / Global Relief of Constipation Symptoms, Change From Baseline, Mean: scale not given here; conditions: for Abdominal Discomfort, Change From Baseline, Mean / Bloating, Change From Baseline, Mean / Constipation Severity, Change From Baseline, Mean / Global Relief of Constipation Symptoms, Change From Baseline, Mean / Stool Consistency (BSFS), Change From Baseline, Mean / Straining, Change From Baseline, Mean / Weekly CSBM Rate, Change From Baseline, Mean / Weekly SBM Rate, Change From Baseline, Mean: RW Period
Experimental: as §1
The Randomized Withdrawal (RW) Period is defined as the 4 weeks immediately following the Treatment Period. The beginning of the RW Period coincides with the end of the Treatment Period. Patients who were randomized to linaclotide in the Treatment Period and complete the 12 weeks of the Treatment Period were randomized to treatment with linaclotide or placebo in the RW Period. Patients who were randomized to placebo in the Treatment Period and complete the 12 weeks of the Treatment Period received 133 μg or 266 μg linaclotide in the RW Period.

[3] = Systemic linaclotide levels after oral administration; format: in vivo; conditions: after oral administration at therapeutic dose levels
Text: (§2) Linaclotide is a peptide GC-C agonist that is orally administered and currently in clinical trials for treatment of irritable bowel syndrome with constipation (IBS-c) and CC.

CC = test: Phase 2b studies for CC, four-week treatment; format: in vivo; conditions: throughout the four-week treatment period
Text: as §2

[4] = 266 μg, Pooled (n = 418), 5-point scale: 1 = none, 5 = very severe

## C[C@@H]1NC(=O)[C@@H]2CCCN2C(=O)[C@H](CC(N)=O)NC(=O)[C@@H]2CSSC[C@H](N)C(=O)N[C@H]3CSSC[C@H](NC1=O)C(=O)N[C@@H]([C@@H](C)O)C(=O)NCC(=O)N[C@H](C(=O)N[C@@H](Cc1ccc(O)cc1)C(=O)O)CSSC[C@H](NC(=O)[C@H](Cc1ccc(O)cc1)NC(=O)[C@H](CCC(=O)O)NC3=O)C(=O)N2 [Linaclotide, Cys1 Cys2 Glu3 Tyr4 Cys5 Cys6 Asn7 Pro8 Ala9 Cys10 Thr11 Gly12 Cys13 Tyr14] (HELM PEPTIDE1{C.C.E.Y.C.C.N.P.A.C.T.G.C.Y}$PEPTIDE1,PEPTIDE1,1:R3-6:R3|PEPTIDE1,PEPTIDE1,2:R3-10:R3|PEPTIDE1,PEPTIDE1,5:R3-13:R3$$$V2.0)
[1]; [4]
  Bloating, Week 1 Mean Change from Baseline: −0.31***
  Constipation severity, Week 1 Mean Change from Baseline: −0.85***
[1]; 266 μg, Pooled (n = 418), 7-point scale (BSFS)
  Stool Consistency, Week 1 Mean Change from Baseline: 1.87***
[1]; both trial 1 and 2
  Overall rates of discontinuation due to adverse events: 7.4%
[1]; both trial 1 and 2, linaclotide-treated patients
  most common adverse events: diarrhea, flatulence, and abdominal pain
[2]; 133 μg/133 μg (n = 90)
  Abdominal Discomfort, Change From Baseline, Mean: −0.5
  Bloating, Change From Baseline, Mean: −0.4
  Constipation Severity, Change From Baseline, Mean: −0.9
  Global Relief of Constipation Symptoms, Change From Baseline, Mean: −1.3
  Stool Consistency (BSFS), Change From Baseline, Mean: 1.9
  Straining, Change From Baseline, Mean: −1.1
  Weekly CSBM Rate, Change From Baseline, Mean: 2.1
  Weekly SBM Rate, Change From Baseline, Mean: 3.0
[2]; 133 μg/Placebo (n = 95)
  Abdominal Discomfort, Change From Baseline, Mean: −0.4
  Bloating, Change From Baseline, Mean: −0.4
  Constipation Severity, Change From Baseline, Mean: −0.5
  Global Relief of Constipation Symptoms, Change From Baseline, Mean: −0.7
  Stool Consistency (BSFS), Change From Baseline, Mean: 1.0
  Straining, Change From Baseline, Mean: −0.8
  Weekly CSBM Rate, Change From Baseline, Mean: 1.0
  Weekly SBM Rate, Change From Baseline, Mean: 1.2
[2]; 266 μg/266 μg (n = 90)
  Abdominal Discomfort, Change From Baseline, Mean: −0.7
  Bloating, Change From Baseline, Mean: −0.6
  Constipation Severity, Change From Baseline, Mean: −0.9
  Global Relief of Constipation Symptoms, Change From Baseline, Mean: −1.3
  Stool Consistency (BSFS), Change From Baseline, Mean: 1.6
  Straining, Change From Baseline, Mean: −1.3
  Weekly CSBM Rate, Change From Baseline, Mean: 2.2
  Weekly SBM Rate, Change From Baseline, Mean: 2.5
[2]; 266 μg/Placebo (n = 86)
  Abdominal Discomfort, Change From Baseline, Mean: −0.4
  Bloating, Change From Baseline, Mean: −0.2
  Constipation Severity, Change From Baseline, Mean: −0.5
  Global Relief of Constipation Symptoms, Change From Baseline, Mean: −0.8
  Stool Consistency (BSFS), Change From Baseline, Mean: 0.8
  Straining, Change From Baseline, Mean: −0.8
  Weekly CSBM Rate, Change From Baseline, Mean: 0.9
  Weekly SBM Rate, Change From Baseline, Mean: 1.3
[2]; Placebo/266 μg (n = 177)
  Abdominal Discomfort, Change From Baseline, Mean: −0.5
  Bloating, Change From Baseline, Mean: −0.5
  Constipation Severity, Change From Baseline, Mean: −1.0
  Global Relief of Constipation Symptoms, Change From Baseline, Mean: −1.3
  Stool Consistency (BSFS), Change From Baseline, Mean: 1.9
  Straining, Change From Baseline, Mean: −1.2
  Weekly CSBM Rate, Change From Baseline, Mean: 2.1
  Weekly SBM Rate, Change From Baseline, Mean: 3.7
[2]; Randomized Withdrawal Period
  bowel and abdominal symptoms and global assessments in patients continuing treatment: sustained improvements
  frequencies of adverse events following discontinuing of treatment: no evidence of rebound of CC symptoms or increase in the frequencies of adverse events
  rebound of CC symptoms following discontinuing of treatment: no evidence of rebound of CC symptoms
[2]; Randomized Withdrawal Period, placebo then linaclotide
  CC symptoms in patients initiating linaclotide treatment: marked improvement
[2]; Randomized Withdrawal Period, versus those receiving linaclotide during first 4 weeks of Treatment Period
  incidence of adverse events in patients initiating linaclotide treatment: similar
[2]; linaclotide for 12 weeks, re-randomized to placebo during 4 week withdrawal period
  CSBM and SBM rates versus baseline rates after withdrawal: no decreases in CSBM (FIG. 2) or SBM rates (FIG. 3) below the baseline rates
[3]
  levels seen systemically: no detectable levels
CC
  effect on constipation, abdominal discomfort, and bloating: reduced constipation, abdominal discomfort, and bloating
